The record followed here is patent US20260108549A1, “MACROLIDE COMPOUND AND PREPARATION METHOD AND APPLICATION THEREOF” (INSTITUTE OF FEED RESEARCH, CHINESE ACADEMY OF AGRICULTURAL …, priority 2023, published 2026).

Experiment [1] has as its system Escherichia coli ATCC 8099. In words: Antibacterial activity, broth microdilution MIC. In kind it is cell-based. The note with it: for MIC: Escherichia coli, ATCC8099, broth microdilution, 37° C., 24 hours, working range 0.25-128 μg/mL (Gram-negative); for antibacterial effect compared with tylosin against Escherichia coli 8099: in vitro, comparison in words with positive control tylosin. Here is the method:
(§1) Test Example 1 Determination of the antibacterial activity of the compounds of the present invention The antibacterial activity of the compounds obtained in Examples 1-4 of the present invention were determined by using the broth microdilution method with tylosin as a positive control. A broth culture medium was added into a 96-well plate, a prepared compound solution was diluted two-fold serial dilution, and then inoculated with an appropriate amount of bacterial solution. After incubation for 24 hours, the minimum inhibitory concentration of the compound was observed. The culture medium used in the experiment was CAMHB broth, CAMHB+5% defibrillated sheep blood broth. The preserved bacteria strain was inoculated into a serum-supplemented medium and cultured at 37° C. for 16-18 hours. An appropriate amount of bacteria after the completion of subculture and saline were placed into a turbidimetric tube and calibrated to the McFarland standard with a McFarland turbidimeter. The bacterial suspension was diluted 10 times with saline to prepare test bacterial solutions of certain concentrations (5×10^5 to 5×10^6 cfu/mL) for later use. Tylosin and the compounds obtained in the examples were dissolved in methanol to the desired concentration of each compound (1.0 mg/mL), stored in sterilized brown vials, stoppered, and sealed for later use. The working concentration range against Gram-negative bacteria was 0.25 μg/mL to 128 μg/mL; and the working concentration range against Gram-positive bacteria was 0.098 μg/mL to 50 μg/mL. The 96-well plate micro double dilution method was used. […] Finally, the prepared bacterial solution (of a concentration of 5×10^5 to 5×10^6 cfu/mL) was added into the first well to the eleventh well, and the twelfth well was not added with the bacterial solution to serve as a blank control. The 96-well plate was placed in a 37° C. incubator, cultured in a static state for 24 hours to observe the bacterial growth in each well. The solution in the well that inhibited bacterial growth was transparent, and the solution in the well that could not inhibit bacterial growth was turbid. The concentration in the well with a transparent solution was selected to be the minimum inhibitory concentration (MIC) of the sample.
(In general: In broth dilution the organism is exposed to a series of concentrations in liquid medium.)

Experiment [2] deals with Streptococcus pneumoniae ATCC 49169. The experiment is described as follows: Antibacterial activity, broth microdilution MIC. The following applies: for MIC: Streptococcus pneumoniae, ATCC49169, broth microdilution, 37° C., 24 hours, working range 0.098-50 μg/mL (Gram-positive); for antibacterial effect compared with tylosin against Streptococcus pneumoniae ATCC 49169: in vitro, comparison in words with positive control tylosin. Type of experiment: cell-based. The method, then:
as §1

≈ marks a conversion by molar mass, not a printed value.

In general, MIC refers to the lowest concentration that inhibits growth of the organism. Take `CC[C@H]1OC(=O)C[C@@H](O)[C@H](C)[C@@H](O[C@@H]2O[C@H](C)[C@@H](O[C@H]3C[C@@](C)(O)[C@@H](O)[C@H](C)O3)[C@H](N(C)C)[C@H]2O)[C@@H](CCNCCCO)C[C@@H](C)C(=O)/C=C/C(C)=C/[C@@H]1CO[C@@H]1O[C@H](C)[C@@H](O)[C@@H](OC)[C@H]1OC` [Ia, 20-(3-hydroxypropylamino) tylosin]: in experiment [1], the MIC amounted to 128 µg/mL (≈ 131 µM) and the “antibacterial effect compared with tylosin against Escherichia coli 8099” value was “comparable antibacterial effect to tylosin”. Moreover, in experiment [2], the MIC is 0.391 µg/mL (≈ 0.401 µM) and the “antibacterial effect compared with tylosin against Streptococcus pneumoniae ATCC 49169” value was “slightly better antibacterial effect than tylosin”.

`CC[C@H]1OC(=O)C[C@@H](O)[C@H](C)[C@@H](O[C@@H]2O[C@H](C)[C@@H](O[C@H]3C[C@@](C)(O)[C@@H](O)[C@H](C)O3)[C@H](N(C)C)[C@H]2O)[C@@H](CCN(CCO)CCO)C[C@@H](C)C(=O)/C=C/C(C)=C/[C@@H]1CO[C@@H]1O[C@H](C)[C@@H](O)[C@@H](OC)[C@H]1OC` [Ib, 20-(bis(2-hydroxyethylamino)) tylosin]: the MIC in experiment [1] was found to be 128 µg/mL (≈ 127 µM); in experiment [2], 0.781 µg/mL (≈ 0.777 µM).

In the case of `CC[C@H]1OC(=O)C[C@@H](O)[C@H](C)[C@@H](O[C@@H]2O[C@H](C)[C@@H](O[C@H]3C[C@@](C)(O)[C@@H](O)[C@H](C)O3)[C@H](N(C)C)[C@H]2O)[C@@H](CCN2CCC[C@@H]2CO)C[C@@H](C)C(=O)/C=C/C(C)=C/[C@@H]1CO[C@@H]1O[C@H](C)[C@@H](O)[C@@H](OC)[C@H]1OC` [Ic, 20-((R)-2-hydroxymethyltetrahydropyrrolyl) tylosin], in experiment [1], inhibition of growth (MIC) required 64 µg/mL (≈ 63.9 µM) and the “antibacterial effect compared with tylosin against Escherichia coli 8099” value is recorded as “superior antibacterial effect to tylosin”. Also, in experiment [2], the MIC stood at 0.195 µg/mL (≈ 0.195 µM) and the “antibacterial effect compared with tylosin against Streptococcus pneumoniae ATCC 49169” value is “superior antibacterial effect to tylosin”.

As for `CC[C@H]1OC(=O)C[C@@H](O)[C@H](C)[C@@H](O[C@@H]2O[C@H](C)[C@@H](O[C@H]3C[C@@](C)(O)[C@@H](O)[C@H](C)O3)[C@H](N(C)C)[C@H]2O)[C@@H](CCN2CCC[C@H]2CO)C[C@@H](C)C(=O)/C=C/C(C)=C/[C@@H]1CO[C@@H]1O[C@H](C)[C@@H](O)[C@@H](OC)[C@H]1OC` [Id, 20-((S)-2-hydroxymethyltetrahydropyrrolyl) tylosin], the MIC turned out to be 128 µg/mL (≈ 128 µM) in experiment [1] and 0.781 µg/mL (≈ 0.78 µM) in experiment [2].

Regarding `CC[C@H]1OC(=O)C[C@@H](O)[C@H](C)[C@@H](O[C@@H]2O[C@H](C)[C@@H](O[C@H]3C[C@@](C)(O)[C@@H](O)[C@H](C)O3)[C@H](N(C)C)[C@H]2O)[C@@H](CC=O)C[C@@H](C)C(=O)/C=C/C(C)=C/[C@@H]1CO[C@@H]1O[C@H](C)[C@@H](O)[C@@H](OC)[C@H]1OC` [Tylosin, reference compound], the MIC in experiment [1] came to 128 µg/mL (≈ 140 µM); in experiment [2], 0.781 µg/mL (≈ 0.853 µM).
